System: methylene-bis-dAMP dimer
Experiment: Reversal of cross-linking of the methylene-bis-dAMP dimer with catalysts, monitored by HPLC
Conditions: 5.0 mM catalyst, 1.0 mM dAMP dimer, 50 mM phosphate buffer pH 5.0, 60° C., aliquots at 10-90 minutes (FIG. 3)
Description: Reverse crosslinking of the methylene-bis-dAMP dimer (as shown in FIG. 2) were monitored by HPLC. […] For each reaction mixture, an aliquot (10 μl) was taken at 10 minutes, 20 minutes, 40 minutes, 60 minutes and 90 minutes.

Compound	reversal of cross-linking (shown as % of dAMP produced), rate compared with no catalyst
Cl.Nc1ccccc1B(O)O [Compound 2, 2-Aminophenylboronic acid]	rates that are much faster than when no catalyst was added
Cc1ccc(N)c(B(O)O)c1 [Compound 3, (2-Amino-5-methylphenyl)boronic acid]	rates that are much faster than when no catalyst was added
CCOP(=O)(OCC)C(N)c1ccccc1.Cl (stereo not shown) [Compound 6, (Aminophenylmethyl)phosphonic acid diethyl ester]	rates that are much faster than when no catalyst was added
[Br][Bi]([Br])[Br] [Compound 7, Bismuth (III) bromide]	rates that are much faster than when no catalyst was added

— patent US10995104B2, “Catalysts for reversing formaldehyde adducts and crosslinks” (Roche Molecular Systems, Inc., priority 2017, dated 2021)
